Assays:
[1] = system: mouse xCT promoter; experiment: Mouse xCT promoter luciferase reporter assay in neurons and astrocytes; type: cell-based; conditions: 24 h incubation, DFO 100 μM, CoCl2 50 μM
Source text: The multiple cloning sites (MCS) of pTA-Luc vector (Clontech) was inserted with the cDNA fragment bearing −2000 to +1 bp mouse or human xCT promoter to drive the expression of firefly luciferase gene as pTA-mxCTp-Luc or pTA-hxCTp-Luc. The mutant of hypoxia response element on mouse or human xCT promoter was generated in the pTA-mxCTp-Luc or pTA-hxCTp-Luc as template by Quick Change Site-directed Mutagenesis Kit (Stratagene).
Cells were cotransfected with xCT promoter-driven reporter constructs with or without HRE mutation and Renilla reporter plasmids. At 24 h after transfection, the luciferase activity was examined by a dual luciferase reporter assay system (Promega) according to the manufacturers instructions, and firefly luciferase activity was normalized to the control renilla activity included in the kit. Luciferase activities are expressed as fold-increase over the luciferase activities in un-stimulated conditions.
To test whether the xCT promoter would respond to HIF activation, the mouse xCT 2000-bp promoter was isolated and fused to firefly luciferase coding sequences for use in transient transfection assays with neurons and astrocytes. Normoxic neurons and astrocytes were treated with OGDR or incubated with desferrioxamine (DFO; 100 μM) or cobalt chloride (CoCl2; 50 μM) for 24 h. The DFO and CoCl2 mimics hypoxia by inducing transcription from HIF-1-dependent genes.

[2] = system: xCT; experiment: xCT mRNA and protein levels in homogenised ischemic brain tissue of rats with CIR; type: in vivo, rat; conditions: pretreatment 150 mg/kg, 12 h after reperfusion
Method: Eight to ten-week-old male adult male Sprague-Dawley rats, C57BL/6J mice and xCT^−/− mice were anesthetized with 1.5% isoflurane in oxygen, allowed breathing spontaneously, and body temperature was maintained at 37° C. with a heat lamp during surgery for right middle cerebral artery ligation and bilateral common carotid artery clamping as previously described (Chen S T, Hsu C Y, Hogan E L, Maricq H, Balentine J D. A model of focal ischemic stroke in the rat: reproducible extensive cortical infarction. Stroke; a journal of cerebral circulation. 1986; 17(4):738-43, which is incorporated here by reference). Animals were subjected to transient cerebral ischemia for 90 min in rats and 2 h in mice.
Q-PCR analysis was performed as described previously in Hsieh (Hsieh C H, Kuo J W, Lee Y J, Chang C W, Gelovani Liu R S. Construction of mutant TKGFP for real-time imaging of temporal dynamics of HIF-1 signal transduction activity mediated by hypoxia and reoxygenation in tumors in living mice. J Nucl Med. 2009; 50(12):2049-57, which is incorporated here by reference). […] The cDNA was then used for real time PCR quantification of mRNAs using the gene specific forward and reverse primers. […]
To test this hypothesis, the mRNA and protein levels of xCT in ischemic brains with or without 2-methoxyestradiol (2ME2), an inhibitor of HIF-1, at 12 h after CIR were first determined. […]

[3] = target: T1, system xc− (Mus musculus, UniProt Q9WTR6); experiment: Extracellular glutamate content in WT cortical cells exposed to OGDR; type: cell-based; conditions: 24 h after reperfusion, 10 μM (SAS 500 μM)
T1 construct: endogenous in cells; host or cells: primary cortical cells from E17 wild-type C57BL/6J mouse embryos, exposed to OGDR
T1 sequence (Q9WTR6 1-502): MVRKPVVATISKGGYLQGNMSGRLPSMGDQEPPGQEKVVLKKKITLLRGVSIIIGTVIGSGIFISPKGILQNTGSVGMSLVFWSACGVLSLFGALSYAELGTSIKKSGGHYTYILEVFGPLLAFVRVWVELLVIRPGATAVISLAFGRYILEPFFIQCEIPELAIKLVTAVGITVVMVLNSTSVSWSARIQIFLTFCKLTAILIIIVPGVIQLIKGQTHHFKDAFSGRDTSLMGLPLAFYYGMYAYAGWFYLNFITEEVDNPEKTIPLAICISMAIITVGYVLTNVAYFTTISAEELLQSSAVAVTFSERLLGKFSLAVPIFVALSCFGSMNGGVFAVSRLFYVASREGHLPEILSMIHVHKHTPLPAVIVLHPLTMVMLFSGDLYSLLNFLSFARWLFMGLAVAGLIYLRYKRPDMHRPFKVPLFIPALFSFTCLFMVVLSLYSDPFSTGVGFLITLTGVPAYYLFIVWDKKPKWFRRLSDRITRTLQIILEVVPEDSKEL
T1 sequence (P10852 1-526 partner): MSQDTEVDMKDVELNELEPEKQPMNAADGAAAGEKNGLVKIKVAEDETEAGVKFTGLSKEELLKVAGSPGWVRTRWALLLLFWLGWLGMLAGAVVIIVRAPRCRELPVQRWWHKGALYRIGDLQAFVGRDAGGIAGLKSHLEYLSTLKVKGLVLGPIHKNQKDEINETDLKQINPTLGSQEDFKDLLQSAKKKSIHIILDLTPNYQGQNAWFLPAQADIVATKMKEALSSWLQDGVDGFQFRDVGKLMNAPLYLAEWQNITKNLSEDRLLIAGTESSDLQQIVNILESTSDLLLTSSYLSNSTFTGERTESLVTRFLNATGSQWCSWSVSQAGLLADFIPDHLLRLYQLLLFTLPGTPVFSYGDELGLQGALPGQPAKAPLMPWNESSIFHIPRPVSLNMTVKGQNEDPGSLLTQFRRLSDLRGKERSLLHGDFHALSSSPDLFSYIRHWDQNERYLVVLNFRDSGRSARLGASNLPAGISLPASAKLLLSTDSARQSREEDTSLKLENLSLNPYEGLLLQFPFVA
Method: (§1) Primary cortical cells were prepared from cerebral cortices of wild-type C57BL/6J or homozygote xCT^−/− mouse embryos in embryonic day 17 as previously described with modification (Goldberg M P, Choi D W. Combined oxygen and glucose deprivation in cortical cell culture: calcium-dependent and calcium-independent mechanisms of neuronal injury. The Journal of neuroscience: the official journal of the Society for Neuroscience, 1993; 13(8):3510-24, which is incorporated here by reference).

[4] = system: WT cortical cells; experiment: Lactate dehydrogenase (LDH) level in WT cortical cells after OGD/OGDR; type: cell-based, mouse; conditions: OGDR, 24 h after reperfusion, 10 μM (SAS 500 μM)
Method: as §1
The LDH assay was carried out at 24 hours after reperfusion. *P<0.01 compared to drugs-untreated cells (Un), one-way ANOVA. Error bars denote the standard deviation among triplicate experiments.

[5] = system: neurons; experiment: Annexin V flow cytometric apoptosis assay after OGDR, neurons; type: cell-based, mouse; conditions: WT cortical cells, 24 h after reperfusion, 10 μM (SAS 500 μM)
Method: (§2) Annexin V staining was performed to determine cell apoptosis using the Annexin V-FITC Apoptosis Detection Kit (Sigma-Aldrich) for 10 min at room temperature according to the manufacturers instructions, and then flow cytometric analysis was performed.
(§3) The three-color staining flow cytometric assay using allophycocyanin-microtubule-associated protein 2 (MAP2) for neuron staining, phycoerythrin (PE)-GFAP for astrocyte staining and FITC-annexin V for apoptotic cell staining was performed to count the numbers of neurons, astrocytes, and apoptotic cells. FIGS. 21A and […] show the results of apoptosis in wild type (WT) and xCT^−/− cortical cells treated with OGDR at 24 h after reperfusion. *P<0.01 compared to WT without OGDR, Student's t-test. ^#P<0.01 compared to WT with OGDR, Student's t-test. From FIGS. 21A and 21B it was observed that that smaller numbers of apoptotic cells were present in xCT^−/− neurons and astrocytes after OGDR treatment.

[6] = system: astrocytes; experiment: Annexin V flow cytometric apoptosis assay after OGDR, astrocytes; type: cell-based, mouse; conditions: WT cortical cells, 24 h after reperfusion, 10 μM (SAS 500 μM)
Method: as §2, §3

[7] = system: NMDAR; conditions: for hyperfunction of NMDAR (binding radioactivity of 18F-FSAG): WT cortical cells, OGDR, 24 h after reperfusion, 10 μM (SAS 500 μM)
[8] = target: T2, system xc− (Homo sapiens, UniProt Q9UPY5); conditions: Dixon et al., eLife 2014; cited from earlier work
T2 sequence (Q9UPY5 1-501): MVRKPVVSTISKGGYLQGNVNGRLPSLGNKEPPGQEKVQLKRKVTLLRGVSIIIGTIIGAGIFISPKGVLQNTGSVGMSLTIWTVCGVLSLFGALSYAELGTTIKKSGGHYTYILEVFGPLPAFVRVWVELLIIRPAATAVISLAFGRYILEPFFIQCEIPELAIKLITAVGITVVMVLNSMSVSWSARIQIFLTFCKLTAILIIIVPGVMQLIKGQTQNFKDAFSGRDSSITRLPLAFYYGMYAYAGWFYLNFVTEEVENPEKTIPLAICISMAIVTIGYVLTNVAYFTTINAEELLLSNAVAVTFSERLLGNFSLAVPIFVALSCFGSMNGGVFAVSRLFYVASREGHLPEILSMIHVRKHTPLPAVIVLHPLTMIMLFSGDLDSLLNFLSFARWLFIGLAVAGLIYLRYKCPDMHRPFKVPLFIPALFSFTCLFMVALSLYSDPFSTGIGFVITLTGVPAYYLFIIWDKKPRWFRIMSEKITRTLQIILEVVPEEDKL
T2 sequence (P08195 1-529 partner): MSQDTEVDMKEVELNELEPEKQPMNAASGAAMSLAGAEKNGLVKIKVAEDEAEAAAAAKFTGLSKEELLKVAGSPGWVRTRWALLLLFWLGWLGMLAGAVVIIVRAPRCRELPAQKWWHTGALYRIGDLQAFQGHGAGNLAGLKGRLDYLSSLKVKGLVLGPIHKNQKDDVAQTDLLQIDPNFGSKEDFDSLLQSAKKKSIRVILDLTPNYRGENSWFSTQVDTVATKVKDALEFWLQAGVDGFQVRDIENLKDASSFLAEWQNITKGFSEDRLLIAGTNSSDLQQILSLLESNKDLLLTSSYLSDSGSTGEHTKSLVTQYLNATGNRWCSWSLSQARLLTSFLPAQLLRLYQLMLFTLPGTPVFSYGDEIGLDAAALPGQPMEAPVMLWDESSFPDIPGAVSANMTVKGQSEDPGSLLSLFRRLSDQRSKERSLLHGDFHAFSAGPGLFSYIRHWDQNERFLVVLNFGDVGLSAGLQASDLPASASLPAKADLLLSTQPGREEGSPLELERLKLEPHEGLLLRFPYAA

[9] = system: SLC7A11 (xCT) mRNA; experiment: SLC7A11 mRNA level (Q-PCR) in primary cortical cells exposed to OGDR; type: cell-based, mouse; conditions: pretreatment with YC-1 5 μM
[10] = target: T3, NMDAR (Mus musculus, UniProt P35438); type: in vivo; conditions: WT and xCT−/− mice with CIR, 12 h after reperfusion, compared to vehicle
T3 construct: from tissue; host or cells: cerebral hemispheres of WT (C57BL/6J) and xCT-/- mice after CIR, in vivo/ex vivo
Method: Animals received 29.6 MBq/kg of ^18F-FSAG in 100 μl of PBS via lateral tail vein injection, and then were euthanized by CO2/O2 asphyxiation at 30 min after injection. After sacrifice, selected tissues of interest were then removed and weighed, and the radioactivity was measured using a γ-counter. The percentage injected dose per gram (% ID/g) was then calculated.
To determine in vivo activation of NMDAR, mice were injected with ^18F-FSAG at 12 h after reperfusion for ex vivo biodistribution studies and positron emission tomography (PET) imaging studies.

## CC(=O)N(O)CCCCCNC(=O)CCC(=O)N(O)CCCCCNC(=O)CCC(=O)N(O)CCCCCN [DFO, desferrioxamine]
[1]
  transcriptional activation of xCT (reporter activity of mouse xCT promoter): increased

## COc1cc2c(cc1O)CC[C@@H]1[C@@H]2CC[C@]2(C)[C@@H](O)CC[C@@H]12 [2ME2, 2-methoxyestradiol]
[2]
  xCT mRNA expression level: significantly inhibited
  xCT protein expression level: significantly inhibited

## CCOc1ccccc1-n1c(C(C)N2CCN(C(=O)COc3ccc(Cl)cc3)CC2)nc2ccccc2c1=O (stereo not drawn) [erastin]
[3]
  OGDR-induced glutamate release (extracellular glutamate content): inhibited
[4]
  LDH levels: inhibited
[5]
  apoptosis in neurons: inhibited
[6]
  apoptosis in astrocytes: inhibited
[7]
  hyperfunction of NMDAR (binding radioactivity of 18F-FSAG): inhibited

## [Cl][Co][Cl] [CoCl2, cobalt chloride]
[1]
  transcriptional activation of xCT (reporter activity of mouse xCT promoter): increased

## Cc1ccc(NC(=O)c2ccc(CN3CCN(C)CC3)cc2)cc1Nc1nccc(-c2cccnc2)n1 [imatinib]
[8]
  system xc− inhibition activity: lacking system xc^− inhibition activity

## CNC(=O)c1cc(Oc2ccc(NC(=O)Nc3ccc(Cl)c(C(F)(F)F)c3)c(F)c2)ccn1 [regorafenib]
[3]
  OGDR-induced glutamate release (extracellular glutamate content): inhibited
[4]
  LDH levels: inhibited
[5]
  apoptosis in neurons: inhibited
[6]
  apoptosis in astrocytes: inhibited
[7]
  hyperfunction of NMDAR (binding radioactivity of 18F-FSAG): inhibited

## OCc1ccc(-c2nn(Cc3ccccc3)c3ccccc23)o1 [YC-1]
[9]
  OGDR-increased SLC7A11 mRNA expression: inhibited

## C[C@]12N[C@H](Cc3ccccc31)c1ccccc12 [MK801]
[10]
  18F-FSAG accumulation in ipsilateral and contralateral hemispheres: significant reduction
[7]; cortical cells, pretreatment 10 μM
  binding of 18F-FSAG: blocked

From patent US20160199393A1, “METHODS OF TREATING BRAIN ISCHEMIA OR HYPOXIA” (China Medical University, priority 2015, published 2016)
